Laboratory results as given in patent US11056705B2, “Organic anolyte materials for flow batteries” (THE REGENTS OF THE UNIVERSITY OF MICHIGAN, priority 2015, dated 2021).
Marks after values point to notes of the source that are not given here.

Experiments:
[1] = Cyclic voltammetry (CV) of anolyte candidates in a three-electrode cell; type: physicochemical; settings: for reduction within the electrochemical window of MeCN: MeCN with NBu4BF4; for reduction potential: MeCN with NBu4BF4 (TBABF4) supporting electrolyte, versus Ag/Ag+; for reversibility of reduction: scan rate not specified; for ipc1/ipa1 (10 mV/s) / ipc1/ipa1 (100 mV/s) / E1^0: 0.01M substrate, 0.10M support; for ipc1/ipa1 (10 mV/s) / ipc1/ipa1 (100 mV/s): 2nd cycle; for E1^0: Ag/Ag+ reference, (E1c+E1a)/2, — = no anodic current observed; for reversibility of redox couple: 10 mV/s (slower scan rates); for current peak-height ratios: low potential couples in TBABF4 supports
Method: The electrochemistry of a series of heteroarenes was evaluated by cyclic voltammetry (CV). Electrochemical analysis was performed in the absence of oxygen and moisture. The experiments were conducted in a three-electrode cell comprised of a glassy carbon working electrode, a platinum counter electrode, and a Ag/Ag^+ reference electrode. The CV of each anolyte candidate was initially conducted in acetonitrile (MeCN) with tetrabutylammonium tetrafluoroborate (TBABF4) as the supporting electrolyte.
The reversibility of each redox couple in the CV was estimated by calculating the ratio of the diffusion-limited peak-heights of the cathodic (ipc) and anodic (ipa) currents (FIG. 2). The current peak heights were determined from the second CV cycle, and are all reported following deconvolution of the current-potential plot. […] In addition, […] conducted at slow scan rates allows for an extended lifetime of the reduced species (FIG. 2, 10 mV/s scan). With longer lifetimes, the concentration of charged anolytes that are susceptible to irreversible chemical or electrochemical reactions will decrease, and lower current responses upon re-oxidation will be observed. As a result, redox couples measured at slow scan rates generally occur with current peak-height ratios that deviate from unity to a greater extent than couples measured at faster scan rates. Thus, these techniques provide a method to rapidly assess and compare a range of anolyte materials.

[2] = as above; type: physicochemical; settings: for reversibility of redox couple: MeCN/TBABF4; for ipc1/ipa1 (10 mV/s) / ipc1/ipa1 (100 mV/s) / ipc2/ipa2 (10 mV/s): 2nd cycle; for ipc2/ipa2 (10 mV/s): second couple
[3] = MeCN/LiBF4, 0.01M substrate, 0.10M support
[4] = PC/LiBF4, 0.01M substrate, 0.10M support
[5] = PC/TBABF4, 0.01M substrate, 0.10M support
[6] = MeCN/LiBF4, 0.01M substrate, 0.10M support, (E1c+E1a)/2, — = no anodic current observed
[7] = MeCN/LiBF4, 0.01M substrate, 0.10M support, (E2c+E2a)/2
[8] = MeCN/LiBF4, CV measured at 200 mV/s scan rate

SMILES | ipc1/ipa1 (10 mV/s) ([1]; MeCN/TBABF4) | ipc1/ipa1 (100 mV/s) ([1]; MeCN/TBABF4) | E1^0 ([1]; MeCN/TBABF4) [V] | ipc1/ipa1 (10 mV/s) [2, 3] | ipc1/ipa1 (100 mV/s) ([1]; MeCN/LiBF4) | E1^0 [2, 6] [V] | also measured
COc1ccccn1 [2-methoxypyridine, reference compound] |  |  |  |  |  |  | reduction within the electrochemical window of MeCN [1]: no reduction was observed
Cc1ccccn1 [2-methylpyridine, reference compound] |  |  |  |  |  |  | reduction within the electrochemical window of MeCN [1]: no reduction was observed
COc1ccnc(-c2cc(OC)ccn2)c1 [4,4′-methoxy bipyridine, reference compound] |  |  |  |  |  |  | reduction potential [1]: −2.6 V; reversibility of reduction ([1]; MeCN/TBABF4): reversibly
COc1ccncc1 [4-methoxypyridine, reference compound] |  |  |  |  |  |  | reduction within the electrochemical window of MeCN [1]: no reduction was observed
Cc1ccncc1 [4-methylpyridine, reference compound] |  |  |  |  |  |  | reduction within the electrochemical window of MeCN [1]: no reduction was observed
COC(=O)c1ccccn1 [Compound 1a, Methyl picolinate] | >5 | 1.83 | −2.36 |  |  |  | reversibility of redox couple ([2]; 100 mV/s): quasi-reversible; reversibility of redox couple ([1]; MeCN/TBABF4): completely irreversible
COC(=O)c1cccnc1 [Compound 2a, methyl nicotinate] | >5 | >5 |  |  |  |  | reversibility of reduction ([1]; MeCN/TBABF4): No re-oxidation current was observed
COC(=O)c1ccncc1 [Compound 3a, methyl isonicotinate] | 1.67 | 1.15 | −2.16 | >5 | >5 |  | ipc1/ipa1 (10 mV/s) [2, 4]: >5; ipc1/ipa1 (100 mV/s) [2, 4]: >5; E1^0 [2, 5]: −2.62 V; ipc1/ipa1 (10 mV/s) [2, 5]: 2.02; ipc1/ipa1 (100 mV/s) [2, 5]: 1.35; reversibility of redox couple ([1]; MeCN/TBABF4): reversible
CCOC(=O)c1ccncc1 [Compound 3b] | 1.28 | 1.03 | −2.20 |  |  |  | 
CC(C)OC(=O)c1ccncc1 [Compound 3c] | 1.10 | 1.02 | −2.20 |  |  |  | 
CC(C)(C)OC(=O)c1ccncc1 [Compound 3d] | 1.09 | 1.01 | −2.24 |  |  |  | reversible reduction processes ([2]; LiBF4 support, scan rates between 10 and 500 mV/s, acetonitrile or propylene carbonate): No reversible reduction processes were observed
CN(C)C(=O)c1ccncc1 [Compound 3e] | >5 | 1.18 | −2.52 |  |  |  | reversibility of redox couple ([2]; 100 mV/s): quasi-reversible; reversibility of redox couple ([1]; MeCN/TBABF4): irreversible
N#CCOC(=O)c1ccncc1 [Compound 3f] | >5 | >5 |  |  |  |  | reduction potential [1]: approximately −2.0 V; reversibility of reduction ([1]; MeCN/TBABF4): highly irreversible
O=C(OCC(F)(F)F)c1ccncc1 [Compound 3g] | >5 | 1.91 | −2.03 |  |  |  | reduction potential [1]: approximately −2.0 V; reversibility of reduction ([1]; MeCN/TBABF4): highly irreversible
O=C(OC(C(F)(F)F)C(F)(F)F)c1ccncc1 [Compound 3h] | >5 | >5 |  |  |  |  | reduction potential [1]: approximately −2.0 V; reversibility of reduction ([1]; MeCN/TBABF4): highly irreversible
COC(=O)c1cc[n+]([O-])cc1 [Compound 4a] | 1.41 | 1.05 | −1.96 | >5 | >5 |  | 
CCOC(=O)c1cc[n+]([O-])cc1 [Compound 4b] |  |  |  | >5 | >5 |  | 
CC(C)OC(=O)c1cc[n+]([O-])cc1 [Compound 4c] |  |  |  | >5 | >5 |  | 
CC(C)(C)OC(=O)c1cc[n+]([O-])cc1 [Compound 4d] | 1.17 | 1.00 | −2.01 | >5 | >5 |  | 

Further lines, with some results ahead:

ipc1/ipa1 (10 mV/s) ([1]; MeCN/TBABF4) | ipc1/ipa1 (100 mV/s) ([1]; MeCN/TBABF4) | E1^0 ([1]; MeCN/TBABF4) [V] | ipc1/ipa1 (10 mV/s) [2, 3] | ipc1/ipa1 (100 mV/s) ([1]; MeCN/LiBF4) | E1^0 [2, 6] [V] | SMILES | also measured
1.10 | 1.03 | −1.42 | 1.06 | 1.02 | −1.83 | COC(=O)c1cc[n+]([B-](F)(F)F)cc1 [Compound 5a] | current peak-height ratios [1]: approaching unity
 |  |  | 1.08 | 1.06 | −1.80 | CCOC(=O)c1cc[n+]([B-](F)(F)F)cc1 [Compound 5b] | 
 |  |  | 1.09 | 1.06 | −1.80 | CC(C)OC(=O)c1cc[n+]([B-](F)(F)F)cc1 [Compound 5c] | 
1.05 | 1.03 | −1.45 | 1.11 | 1.06 | −1.84 | CC(C)(C)OC(=O)c1cc[n+]([B-](F)(F)F)cc1 [Compound 5d] | re-oxidation after the second reduction ([2]; LiBF4 supporting electrolyte, 100 mV/s, scanned to more negative potentials): Minimal re-oxidation; current peak-height ratios [1]: approaching unity
 |  |  | 0.99 |  | −1.11 | CC[n+]1ccc(C(=O)OC)cc1.[I-] [Compound 6a] | ipc2/ipa2 (10 mV/s) [2, 3]: 0.95; E2^0 [2, 7]: −1.85 V
 |  |  | 0.98 |  | −1.10 | CCOC(=O)c1cc[n+](CC)cc1.[I-] [Compound 6b] | ipc2/ipa2 (10 mV/s) [2, 3]: 0.94; E2^0 [2, 7]: −1.86 V
 |  |  | 0.98 |  | −1.11 | CC[n+]1ccc(C(=O)OC)cc1 [Compound 7a] | anodic peak with no corresponding cathodic current ([2]; MeCN, 0.1 M LiBF4, 200 mV/s, +1 V to −2.5 V): +0.4 V; ipc2/ipa2 (10 mV/s) [2, 3]: 0.96; E2^0 [2, 7]: −1.88 V; E1^0 [2, 8]: −1.12 V; ipc1/ipa1 [2, 8]: 1.02^f; ipc2/ipa2 [2, 8]: 1.08^f; current peaks at positive potentials ([2]; MeCN/LiBF4, lower scanning limit −1.4 V or −0.5 V): no current peaks were observed; high potential peak ([2]; MeCN, LiTFSI as the support): only a small high potential peak; high potential peak ([1]; MeCN, TBABF4 as the electrolyte): no high potential peak is observed
 |  |  | 0.99 |  | −1.11 | CCOC(=O)c1cc[n+](CC)cc1 [Compound 7b] | ipc2/ipa2 (10 mV/s) [2, 3]: 0.96; E2^0 [2, 7]: −1.90 V
 |  |  | 0.97 |  | −1.13 | CC[n+]1ccc(C(=O)OC(C)C)cc1 [Compound 7c] | ipc2/ipa2 (10 mV/s) [2, 3]: 0.95; E2^0 [2, 7]: −1.89 V
 |  |  | 0.99 |  | −1.15 | CC[n+]1ccc(C(=O)OC(C)(C)C)cc1 [Compound 7d] | ipc2/ipa2 (10 mV/s) [2, 3]: 0.93; E2^0 [2, 7]: −1.93 V; E1^0 [2, 8]: −1.14 V; E2^0 [2, 8]: −1.92 V; ipc1/ipa1 [2, 8]: 1.09^f; ipc2/ipa2 [2, 8]: 1.38^f
 |  |  | 0.98 |  | −1.11 | CC[n+]1ccc(C(=O)OC)cc1 [Compound 8a] | ipc2/ipa2 (10 mV/s) [2, 3]: 0.95; E2^0 [2, 7]: −1.89 V
